Results published in US20230312528A1, “2-OXO-IMIDAZOLIDINE-4-CARBOXAMIDES AS NAV1.8 INHIBITORS” (Merck Sharp & Dohme LLC, priority 2020, published 2023).

Biological target: human NaV1.8 (Homo sapiens (Human), UniProt Q9Y5Y9)
Experiment: Nav1.8 Qube automated patch-clamp assay
Type: cell-based
Settings: human NaV1.8 stably expressed in HEK 293 cells; automated 384-well patch-clamp; resting or inactivated state not specified
In short: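 IC50 values from Hill-equation fits of offline percent inhibition: the 1st pulse gave resting and the 10th pulse inactivated-state inhibition. Stimulus was a 10 s, 1 Hz train to 10 mV (holding −90 mV, −67 mV interpulse) applied at room temperature to HEK293 cells stably expressing human NaV1.8 (Qube).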

Chain of human NaV1.8 (Q9Y5Y9 whole entry): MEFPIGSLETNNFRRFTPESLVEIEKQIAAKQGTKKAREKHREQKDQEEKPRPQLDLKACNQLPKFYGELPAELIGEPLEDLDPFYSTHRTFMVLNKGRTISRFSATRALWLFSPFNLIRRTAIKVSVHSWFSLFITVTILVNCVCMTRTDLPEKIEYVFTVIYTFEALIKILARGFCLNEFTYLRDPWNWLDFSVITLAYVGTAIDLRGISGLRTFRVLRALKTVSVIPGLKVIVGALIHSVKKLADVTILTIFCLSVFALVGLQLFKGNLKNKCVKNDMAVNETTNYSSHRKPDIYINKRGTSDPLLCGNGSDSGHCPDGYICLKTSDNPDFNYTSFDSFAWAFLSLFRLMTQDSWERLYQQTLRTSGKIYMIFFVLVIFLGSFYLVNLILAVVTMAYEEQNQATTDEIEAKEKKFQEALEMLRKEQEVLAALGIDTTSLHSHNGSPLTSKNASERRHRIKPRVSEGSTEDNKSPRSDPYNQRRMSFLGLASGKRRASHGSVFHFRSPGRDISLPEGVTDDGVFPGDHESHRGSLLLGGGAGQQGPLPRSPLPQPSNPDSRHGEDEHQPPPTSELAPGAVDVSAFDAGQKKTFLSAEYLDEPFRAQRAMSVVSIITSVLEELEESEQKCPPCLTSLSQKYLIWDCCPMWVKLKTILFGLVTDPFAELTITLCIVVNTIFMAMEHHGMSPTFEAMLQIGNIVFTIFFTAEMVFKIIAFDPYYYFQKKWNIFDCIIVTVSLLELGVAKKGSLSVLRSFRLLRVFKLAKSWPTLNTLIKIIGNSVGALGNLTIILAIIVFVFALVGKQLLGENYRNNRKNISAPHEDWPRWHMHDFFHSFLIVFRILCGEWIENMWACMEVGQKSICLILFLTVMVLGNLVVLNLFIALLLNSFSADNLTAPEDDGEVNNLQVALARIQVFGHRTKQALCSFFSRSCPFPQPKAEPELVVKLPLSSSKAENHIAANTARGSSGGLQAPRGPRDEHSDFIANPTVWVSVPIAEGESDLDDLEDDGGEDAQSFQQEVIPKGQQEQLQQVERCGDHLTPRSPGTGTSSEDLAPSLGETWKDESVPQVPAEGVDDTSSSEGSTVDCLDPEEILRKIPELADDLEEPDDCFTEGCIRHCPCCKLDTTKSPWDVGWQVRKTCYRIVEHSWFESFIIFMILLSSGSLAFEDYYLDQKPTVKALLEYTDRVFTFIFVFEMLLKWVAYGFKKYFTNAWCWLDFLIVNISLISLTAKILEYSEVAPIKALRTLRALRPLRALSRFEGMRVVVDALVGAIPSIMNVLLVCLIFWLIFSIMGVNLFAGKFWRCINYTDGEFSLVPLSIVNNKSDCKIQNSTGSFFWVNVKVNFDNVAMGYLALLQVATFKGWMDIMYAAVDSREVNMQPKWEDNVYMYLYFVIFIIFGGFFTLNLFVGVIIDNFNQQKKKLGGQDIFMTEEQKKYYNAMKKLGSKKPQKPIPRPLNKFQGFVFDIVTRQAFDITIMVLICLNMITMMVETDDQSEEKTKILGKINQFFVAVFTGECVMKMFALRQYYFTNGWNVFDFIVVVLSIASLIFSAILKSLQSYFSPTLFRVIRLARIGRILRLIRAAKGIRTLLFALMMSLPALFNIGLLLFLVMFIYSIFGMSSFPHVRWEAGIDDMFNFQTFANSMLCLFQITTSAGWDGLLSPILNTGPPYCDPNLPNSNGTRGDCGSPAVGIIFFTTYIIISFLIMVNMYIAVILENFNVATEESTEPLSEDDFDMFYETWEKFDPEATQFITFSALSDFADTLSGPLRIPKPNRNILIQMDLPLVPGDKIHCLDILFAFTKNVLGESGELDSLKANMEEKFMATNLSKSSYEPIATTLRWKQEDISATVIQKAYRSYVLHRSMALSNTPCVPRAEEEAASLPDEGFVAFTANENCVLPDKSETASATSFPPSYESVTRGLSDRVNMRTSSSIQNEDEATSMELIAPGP

Row | IC50 [nM] | Compound
1 | 44 | O=C1NC[C@@H](C(=O)NC(c2ccc(F)c(Cl)c2)C2Cc3ccc(Cl)cc32)N1 (stereo partly drawn) [Example 71, (4S)-N-((3-chloro-4-fluorophenyl)(4-chlorobicyclo[4.2.0]-octa-1(6),2,4-trien-7-yl)methyl)-2-oxoimidazolidine-4-carboxamide]
2 | 74 | O=C1NC[C@@H](C(=O)NC(c2ccc(F)c(Cl)c2)c2nc3cccnc3s2)N1 (stereo partly drawn) [Example 72, (4S)-N-((3-chloro-4-fluorophenyl)(thiazolo [5,4-b]pyridin-2-yl)methyl)-2-oxoimidazolidine-4-carboxamide]
3 | 35 | Cc1nc(C(F)(F)F)sc1C(NC(=O)[C@@H]1CNC(=O)N1)c1ccc(Cl)cc1 (stereo partly drawn) [Example 76, (4S)-N-((4-chlorophenyl)(4-methyl-2-(trifluoro-methyl)thiazol-5-yl)methyl)-2-oxoimidazolidine-4-carboxamide]
4 | 320 | N#Cc1ccc(C(NC(=O)[C@@H]2CNC(=O)N2)c2ccc(F)c(Cl)c2)nc1 (stereo partly drawn) [Example 86, (4S)-N-[(3-chloro-4-fluorophenyl)(5-cyanopyridin-2-yl)methyl]-2-oxoimidazolidine-4-carboxamide]
